Source: patent publication US8552018B2, “Substituted tricyclic compounds as protein kinase inhibitors” (Arizona Board of Regents on behalf of the University of …, priority 2003, dated 2013)

Key:
[1] = molecular target: cKit(V560G)(h) (Homo sapiens, UniProt P10721, V560G); assay: Kinase profile screen; type: biochemical; conditions: 1 uM
Experimental: (§1) In order to determine the specificity and potential alternative targets for MP470, kinase profile screen were performed utilizing the KinaseProfiler™ Screen (Upstate Corp) and Select Screen™ kinase profiling (Invitrogen). Between the two screens, 53 different kinases were tested, representing a broad proportion of the human kinome. MP470 was screened at a concentration of 1 μM against both wildtype and mutant kinases.

[2] = molecular target: PDGFRα(D842V)(h) (Homo sapiens, UniProt P16234, D842V); assay: Kinase profile screen; type: biochemical; conditions: 1 uM
Sequence of PDGFRα(D842V)(h) (P16234 24-1089 D842V): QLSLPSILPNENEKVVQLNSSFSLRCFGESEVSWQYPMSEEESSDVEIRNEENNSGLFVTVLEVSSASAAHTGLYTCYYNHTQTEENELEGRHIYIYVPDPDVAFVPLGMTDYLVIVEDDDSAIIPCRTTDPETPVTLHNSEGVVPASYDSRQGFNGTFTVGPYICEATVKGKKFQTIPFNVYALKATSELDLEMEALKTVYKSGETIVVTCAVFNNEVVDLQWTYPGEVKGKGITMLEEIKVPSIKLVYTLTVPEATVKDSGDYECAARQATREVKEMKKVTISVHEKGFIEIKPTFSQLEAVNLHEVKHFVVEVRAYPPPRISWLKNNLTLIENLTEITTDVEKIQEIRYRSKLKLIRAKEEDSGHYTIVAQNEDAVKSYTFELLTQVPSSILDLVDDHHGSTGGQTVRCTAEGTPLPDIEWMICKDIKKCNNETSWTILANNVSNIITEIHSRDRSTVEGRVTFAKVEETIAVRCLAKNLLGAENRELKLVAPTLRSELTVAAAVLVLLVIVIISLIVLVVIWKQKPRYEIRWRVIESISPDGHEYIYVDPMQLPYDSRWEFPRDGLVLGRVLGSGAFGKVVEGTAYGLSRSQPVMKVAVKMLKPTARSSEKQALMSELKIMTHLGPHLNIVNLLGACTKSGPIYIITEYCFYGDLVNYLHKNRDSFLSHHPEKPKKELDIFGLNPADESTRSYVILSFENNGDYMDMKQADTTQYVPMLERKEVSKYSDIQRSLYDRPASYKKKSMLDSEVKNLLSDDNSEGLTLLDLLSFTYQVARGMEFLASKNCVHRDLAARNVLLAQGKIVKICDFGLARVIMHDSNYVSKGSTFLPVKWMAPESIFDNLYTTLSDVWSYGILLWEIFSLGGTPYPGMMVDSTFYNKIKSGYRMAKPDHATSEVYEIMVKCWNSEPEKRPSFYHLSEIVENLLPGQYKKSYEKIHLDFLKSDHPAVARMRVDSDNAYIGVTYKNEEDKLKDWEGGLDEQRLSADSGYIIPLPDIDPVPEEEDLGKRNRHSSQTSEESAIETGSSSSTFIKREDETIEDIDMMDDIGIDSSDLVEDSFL
Experimental: as §1

[3] = molecular target: cKit(D816V)(h) (Homo sapiens, UniProt P10721, D816V); assay: Kinase profile screen; type: biochemical; conditions: 1 uM
Sequence of cKit(D816V)(h) (P10721 26-976 D816V): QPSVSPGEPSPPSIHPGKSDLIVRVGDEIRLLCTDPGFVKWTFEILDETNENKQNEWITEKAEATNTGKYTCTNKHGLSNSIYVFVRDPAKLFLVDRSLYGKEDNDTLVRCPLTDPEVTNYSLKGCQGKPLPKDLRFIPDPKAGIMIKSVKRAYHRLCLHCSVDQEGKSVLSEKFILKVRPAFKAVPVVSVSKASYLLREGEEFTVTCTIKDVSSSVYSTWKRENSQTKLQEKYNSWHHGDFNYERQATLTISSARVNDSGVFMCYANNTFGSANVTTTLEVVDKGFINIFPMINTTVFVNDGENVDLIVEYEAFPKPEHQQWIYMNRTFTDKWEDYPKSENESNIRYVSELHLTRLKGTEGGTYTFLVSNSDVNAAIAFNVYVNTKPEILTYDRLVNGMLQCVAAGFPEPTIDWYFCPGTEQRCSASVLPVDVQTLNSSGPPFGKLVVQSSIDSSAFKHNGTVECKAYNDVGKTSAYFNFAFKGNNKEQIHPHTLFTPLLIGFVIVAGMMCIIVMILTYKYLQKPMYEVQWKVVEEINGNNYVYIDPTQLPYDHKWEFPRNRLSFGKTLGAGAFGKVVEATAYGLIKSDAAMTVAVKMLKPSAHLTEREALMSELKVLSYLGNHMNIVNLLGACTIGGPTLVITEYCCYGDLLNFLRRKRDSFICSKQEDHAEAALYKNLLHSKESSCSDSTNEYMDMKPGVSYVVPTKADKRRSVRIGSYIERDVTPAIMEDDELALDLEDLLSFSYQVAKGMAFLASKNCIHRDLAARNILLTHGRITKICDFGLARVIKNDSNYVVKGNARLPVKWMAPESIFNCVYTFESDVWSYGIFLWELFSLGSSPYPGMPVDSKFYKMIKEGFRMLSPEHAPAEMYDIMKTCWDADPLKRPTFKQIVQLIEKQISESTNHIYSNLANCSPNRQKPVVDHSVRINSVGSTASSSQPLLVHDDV
Experimental: as §1

[4] = molecular target: PDGFRα(V561D)(h) (Homo sapiens, UniProt P16234, V561D); assay: Kinase profile screen; type: biochemical; conditions: 1 uM
Sequence of PDGFRα(V561D)(h) (P16234 24-1089 V561D): as the sequence (P16234 24-1089 D842V) above, with V538D, V819D counted along it
Experimental: as §1

[5] = molecular target: cKit(V654A)(h) (Homo sapiens, UniProt P10721, V654A); assay: Kinase profile screen; type: biochemical; conditions: 1 uM
Sequence of cKit(V654A)(h) (P10721 26-976 V654A): as the sequence (P10721 26-976 D816V) above, with V629A, V791D counted along it
Experimental: as §1

[6] = molecular target: Flt3(D835Y)(h) (Homo sapiens, UniProt P36888, D835Y); assay: Kinase profile screen; type: biochemical; conditions: 1 uM
Experimental: as §1

[7] = test system: general tyrosine phosphorylation in NIH 3T3 cells; assay: Immunoblot for phosphotyrosine; type: cell-based
Experimental: MP-470 (Compound III-1-3) has inhibitory effects on a number of receptor tyrosine kinases. In order to evaluate these effects at the cellular level, immunoblot analysis was performed on lysates from cells treated with MP470, with or without the addition of the EGFR inhibitor Tarceva®. Lysates were assayed for general tyrosine kinase activity, as well as the specific phosphorylation of c-Met and Akt. Briefly, NIH 3T3 cells were pretreated with drugs as indicated for 4 hours, then treated with pervanadate for a further 30 minutes. Immunoblot detection was carried out with antibodies for phosphotyrosine, phospho-Met and phospho-Akt (S473), as well as total c-Met and Akt. Beta-actin was used as a loading control.

Sequence of cKit(V560G)(h) (P10721 26-976 V560G): as the sequence (P10721 26-976 D816V) above, with V535G, V791D counted along it

Which “activity against mutant kinase” value [1] does the source give for `S=C(NCc1ccc2c(c1)OCO2)N1CCN(c2ncnc3c2oc2ccccc23)CC1` [HPK56, 4-Benzo[4,5]furo[3,2-d]pyrimidin-4-yl-piperazine-1-carbothioic acid (benzo[1,3]dioxol-5-ylmethyl)-amide] here?
Its value is “activity”.

What about the “activity against mutant kinase” value [2] of the same compound?
The value was “activity”.

And the “activity against mutant kinase” value [3]?
Its value is “activity”.

What about the “activity against mutant kinase” value [4] of the same compound?
The value was “activity”.

What about the “activity against mutant kinase” value [5] of the same compound?
The value was “activity”.

And the “activity against mutant kinase” value [6]?
Its value is “activity”.

What about the general tyrosine phosphorylation [7] of the same compound?
Its general tyrosine phosphorylation is “reduced”.
